# pEC50: −log10 of the molar value.
# Columns and labels:
# [1] = test system: ICR(CD-1) mice; assay: Reversal of Phencyclidine (PCP)-Induced Hyperlocomotor Activity in Mice; assay type: in vivo, mouse; conditions: i.p.
# Text: This assay for Reversal of Phencyclidine (PCP)-Induced Hyperlocomotor Activity in Mice is run substantially as the Reversal of Phencyclidine (PCP)-Induced Hyperlocomotor Activity in Rats assay provided above, using mice instead of rats and with the changes noted below.
# Motor activity is monitored by placing individual male, ICR(CD-1), (Harlan, Indianapolis, Ind.) mice in transparent, plastic shoe-box cages of the dimensions 45×25×20 cm, with 0.5 cm depth of wood chips as bedding, and plastic lid on top of the cage. Motor monitors (Kinder Scientific) consist of a rectangular rack of 12 photobeams arranged in an 8×4 formation, (or a high density grouping of 22 in a 15×7 pattern) at a height of 2.5 cm. The shoe box cage is placed inside of these racks, with the racks on a 3 foot high tabletop in an isolated room. A compound of the present invention is dosed (intraperitoneal route, non-prodrug) usually within a range of 0.3-30 mg/kg; though higher doses may be used, 30 minutes prior to a 7.5 mg/kg challenge dose of phencyclidine (PCP). On the test day, mice are placed in the test cage and allowed to acclimate for 45 minutes prior to PCP challenge; mice are monitored for an additional 60 minutes following PCP administration.
# Power analyses have determined that 7-8 mice per group are needed to have appropriate statistical power for detecting treatment differences (power=0.8).
# [2] = target: T1, human mGlu2 receptor (Homo sapiens, UniProt Q14416); assay: Human mGlu2 Agonist FLIPR Assay; assay type: cell-based; conditions: hmGlu2 FLIPR assay, AV-12 cells, relative EC50
# T1 construct: expressed in transfected cells; co-transfected with rat EAAT1 and Galpha15
# T1 sequence (Q14416 19-872): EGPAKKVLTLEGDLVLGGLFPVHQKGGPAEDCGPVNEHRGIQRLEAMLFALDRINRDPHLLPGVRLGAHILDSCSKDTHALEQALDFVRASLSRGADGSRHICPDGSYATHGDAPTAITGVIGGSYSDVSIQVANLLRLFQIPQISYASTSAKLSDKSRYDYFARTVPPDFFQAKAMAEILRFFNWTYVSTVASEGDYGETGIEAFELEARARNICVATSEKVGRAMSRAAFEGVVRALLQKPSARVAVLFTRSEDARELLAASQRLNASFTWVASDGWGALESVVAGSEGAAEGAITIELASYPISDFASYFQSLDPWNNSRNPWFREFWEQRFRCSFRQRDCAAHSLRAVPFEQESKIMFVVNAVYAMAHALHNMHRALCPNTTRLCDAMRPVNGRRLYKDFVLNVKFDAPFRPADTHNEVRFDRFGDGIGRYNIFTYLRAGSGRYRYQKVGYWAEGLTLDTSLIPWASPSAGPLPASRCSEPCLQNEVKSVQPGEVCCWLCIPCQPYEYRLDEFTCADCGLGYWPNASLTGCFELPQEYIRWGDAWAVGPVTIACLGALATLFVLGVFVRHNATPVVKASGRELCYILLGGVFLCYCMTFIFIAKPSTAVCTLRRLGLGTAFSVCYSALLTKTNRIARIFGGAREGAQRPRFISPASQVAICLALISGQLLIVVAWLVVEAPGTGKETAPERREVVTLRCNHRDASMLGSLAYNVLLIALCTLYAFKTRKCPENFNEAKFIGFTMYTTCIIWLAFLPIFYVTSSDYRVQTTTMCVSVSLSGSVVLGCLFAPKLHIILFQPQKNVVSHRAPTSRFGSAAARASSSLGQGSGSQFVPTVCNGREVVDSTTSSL
# Text: AV-12 cell lines, derived from Syrian Hamster fibroblasts and stably expressing the human mGlu2 receptor and co-transfected with the rat glutamate transporter EAAT 1 (Excitatory Amino Acid Transporter 1) and the Gα15 subunit, are used for these studies. The expression of Gα15 allows Gi-coupled receptors to signal through the phospholipase C pathway, resulting in the ability to measure receptor activation by a fluorometric calcium response assay. […]
# Intracellular calcium levels are monitored before and after the addition of compounds using a Fluorometric Imaging Plate Reader (FLIPR, Molecular Devices). […] Results are analyzed using Prism v4.03 (GraphPad Software). […] After taking an initial 5-sec fluorescent read on the FLIPR instrument, a compound of the present invention is added to the cell plate (50 μL per well). […] The compound effect is measured as maximal minus minimal peak heights in relative fluorescent units (RFUs) corrected for basal fluorescence measured in the absence of glutamate. […] Agonist effects are quantified as percent stimulation induced by compound alone relative to the maximal glutamate response. All data are calculated as relative EC50 values using a four-parameter logistic curve fitting program (ActivityBase v5.3.1.22).
# [3] = both, human, pH 7.4
# Experimental: Liver S9 fractions are obtained from Xenotech LLC (Lenexa, Mo.). The lot is from a pool of two donors. The liver S9 fraction is prepared and diluted using a homogenization buffer consisting of 50 mM Tris, pH 7.4 at 4° C. and 150 mM potassium chloride without EDTA. Prodrug compounds are incubated in the liver homogenate for 2 hours at 37° C., after which the concentration of compound is determined by LC/MS/MS. Hydrolysis of Clopidogrel to Clopidogrel Carboxylic Acid is utilized as an assay positive control.
# A mobile phase gradient is utilized starting mobile phase ratio A/B of 99.9/0.1 and finishing at 1/99.
Structure (SMILES),"inhibition of PCP evoked ambulations ([1]; multiple dose experiment, 10 mg/kg dose) [%]","inhibition of PCP evoked ambulations ([1]; multiple dose experiment, 100 mg/kg dose) [%]",inhibition of PCP evoked ambulations ([1]; single dose experiment of 10 mg/kg) [%],pEC50 [2],Hydrolysis of Clopidogrel to Clopidogrel Carboxylic Acid [3] [%]
"N[C@]1(C(=O)O)C[C@H](Sc2ccccc2)[C@@H]2[C@@H](C(=O)O)[C@@H]21 (racemic) [1SR,2RS,4SR,5SR,6SR-2-amino-4-(phenylthio)-bicyclo[3.1.0]hexane-2,6-dicarboxylic acid]",5±10,19±8,18±11,< 4.60,–
COC(=O)[C@H](c1ccccc1Cl)N1CCc2sccc2C1 [Clopidogrel],–,–,–,–,73.0

# Source: patent US8318184B2, “MGLU2 agonists” (Eli Lilly and Company, priority 2009, dated 2012)
